*1 amine or outer side, *2 acyl side, *3 side chain or, on linkers, in order; H or OH if unused. Where a SMILES comes first, the peptide text is derived from it. [ ]: non-standard residue; d: D form. X1 = O=C1CCN([*:1])CCN1[C@@H](Cc1ccccc1)C(=O)[*:2]

Assay [1] deals with T1, 3CLPro enzyme, the main protease of SARS-CoV-2 (Severe acute respiratory syndrome coronavirus 2, UniProt P0DTD1).
T1 construct: 3CLPro enzyme, the main protease of SARS-CoV-2
The assay is described as follows: biochemical. The class given is biochemical. The conditions noted are these: for % In(3CLPro) at 100 μM: pH 7.

Assay [2] concerns the target SARS-CoV-2 spike/ACE2 complex (RBD of Spike S protein binding to human receptor ACE2) (Severe acute respiratory syndrome coronavirus 2, UniProt P0DTC2). The assay is described as follows: biochemical. Set-up: species or system SARS-CoV-2 / human.
Another assay deals with SARS-CoV-2 infection. As to conditions: cited from earlier work.

As a reminder, the IC50 is the point on the concentration scale where inhibition reaches its midpoint. High values mean weaker potency, low ones greater potency. Consider `NC(=O)CC[C@H](NC(=O)[C@H](Cc1ccc(O)cc1)NC(=O)[C@H](Cc1ccccc1)N1CCN(C(=O)[C@H](CC(=O)O)NC(=O)[C@@H](N)CCC(=O)O)CC1=O)C(N)=O` [compound 15, H-ED(4b)YQ-NH2], for which, in assay [1], the IC50 came to 15 µM and the “% In(3CLPro) at 100 μM” value was 90–91%.
Consider `NC(=O)CC[C@H](NC(=O)[C@H](Cc1ccc(O)cc1)NC(=O)[C@H](Cc1ccccc1)N1CCN(C(=O)[C@H](CC(=O)O)NC(=O)[C@@H](N)CCC(=O)O)CCC1=O)C(N)=O` [compound 16, H-ED(11b)YQ-NH2] (H-ED[X1]YQ-NH2), for which, in assay [1], half-maximal inhibition (IC50) required 127 µM and the “% In(3CLPro) at 100 μM” value is 45–57%. Moreover, in assay [2], the “% In(spike–ACE2) at 100 μM” value is recorded as 66–76% and the IC50 worked out at 20 µM.
H-EDLFYQ-NH2 [EDLFYQ (SAP-6)]: the “inhibition potency toward SARS-CoV-2 infection” value with SARS-CoV-2 infection was “millimolar range”.

Values taken from publication PMC9454270, “Peptidomimetic Small-Molecule Inhibitors of 3CLPro Activity and Spike–ACE2 Interaction: Toward Dual-Action Molecules against Coronavirus Infections” (The Journal of Organic Chemistry, 2022).
